Test results from the supplement of paper PMC8671470.
Structures can show the parent of a compound that is named as a salt.

system: myeloid leukemia patient primary cells Pat.9; assay: cell viability (% survival relative to DMSO control); higher = less cytotoxic; details: 10 nM; 72 h
How it was run: (§1)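 Mononuclear cells from patients with AML or CML were thawed, purified on Ficoll and placed in RPMI 1640 with 10% FBS at 10,000 cells/well on 384-well plates. The plates came pre-printed with 70 compounds at five tenfold concentrations spanning 1–10,000 nM, in duplicate, and cells were exposed for 72 h. CellTiter-Glo gave viability, scaled between DMSO wells and wells with 10 μM proteasome inhibitor. Where reported, area under the curve was obtained from log-logistic fits with four parameters using the drc and PharmacoGx R packages.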

Which cell viability does the source give for `Fc1ccc(CNc2ncnc3ccc(F)cc23)cc1` [Spautin 1] here?
Its cell viability is 7.92%.

`O=C(Oc1cccc(F)c1OC(=O)c1cccc(O)c1)c1cccc(O)c1` [WZB117] was tested. Which cell viability did it give?
The cell viability was 27.8%.

`CC(C)(Cc1ccccc1)NCC(O)c1ccc(O)c(NS(C)(=O)=O)c1` (configuration not stated) [Zinterol hydrochloride] was tested. Which cell viability did it give?
Its cell viability is 79.5%.

same assay, conditions: 100 nM; 72 h

With `Fc1ccc(CNc2ncnc3ccc(F)cc23)cc1` [Spautin 1] as the compound, how does the cell viability read?
Its cell viability is 65.9%.

`O=C(Oc1cccc(F)c1OC(=O)c1cccc(O)c1)c1cccc(O)c1` [WZB117] was tested. Which cell viability did it give?
Its cell viability is 46.5%.

For `CC(C)(Cc1ccccc1)NCC(O)c1ccc(O)c(NS(C)(=O)=O)c1` (configuration not stated) [Zinterol hydrochloride], which cell viability is on record?
The cell viability was 67.4%.

same assay, conditions: 1000 nM; 72 h

How did the cell viability turn out when `Fc1ccc(CNc2ncnc3ccc(F)cc23)cc1` [Spautin 1] was run?
Its cell viability is 12.7%.

With `O=C(Oc1cccc(F)c1OC(=O)c1cccc(O)c1)c1cccc(O)c1` [WZB117] as the compound, how does the cell viability read?
The cell viability was 59.5%.

For `CC(C)(Cc1ccccc1)NCC(O)c1ccc(O)c(NS(C)(=O)=O)c1` (configuration not stated) [Zinterol hydrochloride], which cell viability is on record?
The cell viability was 74.7%.

same assay, conditions: 10000 nM; 72 h

`Fc1ccc(CNc2ncnc3ccc(F)cc23)cc1` [Spautin 1] was tested. Which cell viability did it give?
The cell viability was 5.45%.

How did the cell viability turn out when `O=C(Oc1cccc(F)c1OC(=O)c1cccc(O)c1)c1cccc(O)c1` [WZB117] was run?
The cell viability was 2.92%.

For `CC(C)(Cc1ccccc1)NCC(O)c1ccc(O)c(NS(C)(=O)=O)c1` (configuration not stated) [Zinterol hydrochloride], which cell viability is on record?
The cell viability was 87.2%.

system: myeloid leukemia patient primary cells Pat.15; assay: as above; details: 1 nM; 72 h
How it was run: as §1

How did the cell viability turn out when `Fc1ccc(CNc2ncnc3ccc(F)cc23)cc1` [Spautin 1] was run?
Its cell viability is 96.5%.

`O=C(Oc1cccc(F)c1OC(=O)c1cccc(O)c1)c1cccc(O)c1` [WZB117] was tested. Which cell viability did it give?
Its cell viability is 96.4%.

For `CC(C)(Cc1ccccc1)NCC(O)c1ccc(O)c(NS(C)(=O)=O)c1` (configuration not stated) [Zinterol hydrochloride], which cell viability is on record?
Its cell viability is 87%.

same assay, conditions: 10 nM; 72 h

How did the cell viability turn out when `Fc1ccc(CNc2ncnc3ccc(F)cc23)cc1` [Spautin 1] was run?
The cell viability was 90.9%.

For `O=C(Oc1cccc(F)c1OC(=O)c1cccc(O)c1)c1cccc(O)c1` [WZB117], which cell viability is on record?
Its cell viability is 78.9%.

`CC(C)(Cc1ccccc1)NCC(O)c1ccc(O)c(NS(C)(=O)=O)c1` (configuration not stated) [Zinterol hydrochloride] was tested. Which cell viability did it give?
The cell viability was over 100%.

same assay, conditions: 100 nM; 72 h

`Fc1ccc(CNc2ncnc3ccc(F)cc23)cc1` [Spautin 1] was tested. Which cell viability did it give?
The cell viability was 91.5%.

How did the cell viability turn out when `O=C(Oc1cccc(F)c1OC(=O)c1cccc(O)c1)c1cccc(O)c1` [WZB117] was run?
The cell viability was 86.1%.

With `CC(C)(Cc1ccccc1)NCC(O)c1ccc(O)c(NS(C)(=O)=O)c1` (configuration not stated) [Zinterol hydrochloride] as the compound, how does the cell viability read?
The cell viability was 95.8%.

same assay, conditions: 1000 nM; 72 h

How did the cell viability turn out when `Fc1ccc(CNc2ncnc3ccc(F)cc23)cc1` [Spautin 1] was run?
The cell viability was 79.4%.

`O=C(Oc1cccc(F)c1OC(=O)c1cccc(O)c1)c1cccc(O)c1` [WZB117] was tested. Which cell viability did it give?
The cell viability was 75.7%.

`CC(C)(Cc1ccccc1)NCC(O)c1ccc(O)c(NS(C)(=O)=O)c1` (configuration not stated) [Zinterol hydrochloride] was tested. Which cell viability did it give?
Its cell viability is 95.8%.

same assay, conditions: 10000 nM; 72 h

How did the cell viability turn out when `Fc1ccc(CNc2ncnc3ccc(F)cc23)cc1` [Spautin 1] was run?
Its cell viability is 25.9%.

For `O=C(Oc1cccc(F)c1OC(=O)c1cccc(O)c1)c1cccc(O)c1` [WZB117], which cell viability is on record?
Its cell viability is 61.3%.

`CC(C)(Cc1ccccc1)NCC(O)c1ccc(O)c(NS(C)(=O)=O)c1` (configuration not stated) [Zinterol hydrochloride] was tested. Which cell viability did it give?
Its cell viability is 68.9%.

system: myeloid leukemia patient primary cells Pat.2; assay: as above; details: 1 nM; 72 h
How it was run: as §1

How did the cell viability turn out when `Fc1ccc(CNc2ncnc3ccc(F)cc23)cc1` [Spautin 1] was run?
The cell viability was 97.1%.

How did the cell viability turn out when `O=C(Oc1cccc(F)c1OC(=O)c1cccc(O)c1)c1cccc(O)c1` [WZB117] was run?
Its cell viability is 99.7%.

How did the cell viability turn out when `CC(C)(Cc1ccccc1)NCC(O)c1ccc(O)c(NS(C)(=O)=O)c1` (configuration not stated) [Zinterol hydrochloride] was run?
Its cell viability is 85.5%.

same assay, conditions: 10 nM; 72 h

Which cell viability does the source give for `Fc1ccc(CNc2ncnc3ccc(F)cc23)cc1` [Spautin 1] here?
Its cell viability is 88.7%.

`O=C(Oc1cccc(F)c1OC(=O)c1cccc(O)c1)c1cccc(O)c1` [WZB117] was tested. Which cell viability did it give?
The cell viability was 83.5%.

With `CC(C)(Cc1ccccc1)NCC(O)c1ccc(O)c(NS(C)(=O)=O)c1` (configuration not stated) [Zinterol hydrochloride] as the compound, how does the cell viability read?
Its cell viability is 96.4%.

same assay, conditions: 100 nM; 72 h

For `Fc1ccc(CNc2ncnc3ccc(F)cc23)cc1` [Spautin 1], which cell viability is on record?
Its cell viability is over 100%.

With `O=C(Oc1cccc(F)c1OC(=O)c1cccc(O)c1)c1cccc(O)c1` [WZB117] as the compound, how does the cell viability read?
Its cell viability is 90.5%.

How did the cell viability turn out when `CC(C)(Cc1ccccc1)NCC(O)c1ccc(O)c(NS(C)(=O)=O)c1` (configuration not stated) [Zinterol hydrochloride] was run?
Its cell viability is 86%.

same assay, conditions: 1000 nM; 72 h

`Fc1ccc(CNc2ncnc3ccc(F)cc23)cc1` [Spautin 1] was tested. Which cell viability did it give?
Its cell viability is 87.3%.

With `O=C(Oc1cccc(F)c1OC(=O)c1cccc(O)c1)c1cccc(O)c1` [WZB117] as the compound, how does the cell viability read?
The cell viability was 93.6%.

How did the cell viability turn out when `CC(C)(Cc1ccccc1)NCC(O)c1ccc(O)c(NS(C)(=O)=O)c1` (configuration not stated) [Zinterol hydrochloride] was run?
Its cell viability is 99.7%.

same assay, conditions: 10000 nM; 72 h

`Fc1ccc(CNc2ncnc3ccc(F)cc23)cc1` [Spautin 1] was tested. Which cell viability did it give?
The cell viability was 77.2%.

`O=C(Oc1cccc(F)c1OC(=O)c1cccc(O)c1)c1cccc(O)c1` [WZB117] was tested. Which cell viability did it give?
The cell viability was 77.1%.

Which cell viability does the source give for `CC(C)(Cc1ccccc1)NCC(O)c1ccc(O)c(NS(C)(=O)=O)c1` (configuration not stated) [Zinterol hydrochloride] here?
Its cell viability is 93%.

system: myeloid leukemia patient primary cells Pat.6; assay: as above; details: 1 nM; 72 h
How it was run: as §1

Which cell viability does the source give for `Fc1ccc(CNc2ncnc3ccc(F)cc23)cc1` [Spautin 1] here?
Its cell viability is over 100%.

Which cell viability does the source give for `O=C(Oc1cccc(F)c1OC(=O)c1cccc(O)c1)c1cccc(O)c1` [WZB117] here?
Its cell viability is 96.3%.

For `CC(C)(Cc1ccccc1)NCC(O)c1ccc(O)c(NS(C)(=O)=O)c1` (configuration not stated) [Zinterol hydrochloride], which cell viability is on record?
The cell viability was over 100%.

same assay, conditions: 10 nM; 72 h

`Fc1ccc(CNc2ncnc3ccc(F)cc23)cc1` [Spautin 1] was tested. Which cell viability did it give?
The cell viability was 86.8%.

`O=C(Oc1cccc(F)c1OC(=O)c1cccc(O)c1)c1cccc(O)c1` [WZB117] was tested. Which cell viability did it give?
Its cell viability is 87.9%.

For `CC(C)(Cc1ccccc1)NCC(O)c1ccc(O)c(NS(C)(=O)=O)c1` (configuration not stated) [Zinterol hydrochloride], which cell viability is on record?
The cell viability was over 100%.

same assay, conditions: 100 nM; 72 h

How did the cell viability turn out when `Fc1ccc(CNc2ncnc3ccc(F)cc23)cc1` [Spautin 1] was run?
Its cell viability is 96.6%.

For `O=C(Oc1cccc(F)c1OC(=O)c1cccc(O)c1)c1cccc(O)c1` [WZB117], which cell viability is on record?
Its cell viability is 87.1%.

With `CC(C)(Cc1ccccc1)NCC(O)c1ccc(O)c(NS(C)(=O)=O)c1` (configuration not stated) [Zinterol hydrochloride] as the compound, how does the cell viability read?
The cell viability was over 100%.

same assay, conditions: 1000 nM; 72 h

`Fc1ccc(CNc2ncnc3ccc(F)cc23)cc1` [Spautin 1] was tested. Which cell viability did it give?
Its cell viability is 87.9%.

Which cell viability does the source give for `O=C(Oc1cccc(F)c1OC(=O)c1cccc(O)c1)c1cccc(O)c1` [WZB117] here?
Its cell viability is 93.3%.

`CC(C)(Cc1ccccc1)NCC(O)c1ccc(O)c(NS(C)(=O)=O)c1` (configuration not stated) [Zinterol hydrochloride] was tested. Which cell viability did it give?
The cell viability was over 100%.

same assay, conditions: 10000 nM; 72 h

Which cell viability does the source give for `Fc1ccc(CNc2ncnc3ccc(F)cc23)cc1` [Spautin 1] here?
Its cell viability is 42.2%.

Which cell viability does the source give for `O=C(Oc1cccc(F)c1OC(=O)c1cccc(O)c1)c1cccc(O)c1` [WZB117] here?
Its cell viability is 62.6%.

With `CC(C)(Cc1ccccc1)NCC(O)c1ccc(O)c(NS(C)(=O)=O)c1` (configuration not stated) [Zinterol hydrochloride] as the compound, how does the cell viability read?
Its cell viability is over 100%.

system: myeloid leukemia patient primary cells Pat.12; assay: as above; details: 1 nM; 72 h
How it was run: as §1

With `Fc1ccc(CNc2ncnc3ccc(F)cc23)cc1` [Spautin 1] as the compound, how does the cell viability read?
The cell viability was 97.3%.

How did the cell viability turn out when `O=C(Oc1cccc(F)c1OC(=O)c1cccc(O)c1)c1cccc(O)c1` [WZB117] was run?
The cell viability was 98.4%.

With `CC(C)(Cc1ccccc1)NCC(O)c1ccc(O)c(NS(C)(=O)=O)c1` (configuration not stated) [Zinterol hydrochloride] as the compound, how does the cell viability read?
The cell viability was 90.2%.

same assay, conditions: 10 nM; 72 h

Which cell viability does the source give for `Fc1ccc(CNc2ncnc3ccc(F)cc23)cc1` [Spautin 1] here?
Its cell viability is 87.3%.

Which cell viability does the source give for `O=C(Oc1cccc(F)c1OC(=O)c1cccc(O)c1)c1cccc(O)c1` [WZB117] here?
The cell viability was 92.8%.

For `CC(C)(Cc1ccccc1)NCC(O)c1ccc(O)c(NS(C)(=O)=O)c1` (configuration not stated) [Zinterol hydrochloride], which cell viability is on record?
Its cell viability is 98.3%.

same assay, conditions: 100 nM; 72 h

With `Fc1ccc(CNc2ncnc3ccc(F)cc23)cc1` [Spautin 1] as the compound, how does the cell viability read?
Its cell viability is over 100%.

Which cell viability does the source give for `O=C(Oc1cccc(F)c1OC(=O)c1cccc(O)c1)c1cccc(O)c1` [WZB117] here?
Its cell viability is 95.5%.

With `CC(C)(Cc1ccccc1)NCC(O)c1ccc(O)c(NS(C)(=O)=O)c1` (configuration not stated) [Zinterol hydrochloride] as the compound, how does the cell viability read?
The cell viability was 93.9%.

same assay, conditions: 1000 nM; 72 h

With `Fc1ccc(CNc2ncnc3ccc(F)cc23)cc1` [Spautin 1] as the compound, how does the cell viability read?
Its cell viability is over 100%.

Which cell viability does the source give for `O=C(Oc1cccc(F)c1OC(=O)c1cccc(O)c1)c1cccc(O)c1` [WZB117] here?
The cell viability was 86.4%.

For `CC(C)(Cc1ccccc1)NCC(O)c1ccc(O)c(NS(C)(=O)=O)c1` (configuration not stated) [Zinterol hydrochloride], which cell viability is on record?
The cell viability was 99%.

same assay, conditions: 10000 nM; 72 h

How did the cell viability turn out when `Fc1ccc(CNc2ncnc3ccc(F)cc23)cc1` [Spautin 1] was run?
Its cell viability is 72.6%.

For `O=C(Oc1cccc(F)c1OC(=O)c1cccc(O)c1)c1cccc(O)c1` [WZB117], which cell viability is on record?
Its cell viability is 57%.

For `CC(C)(Cc1ccccc1)NCC(O)c1ccc(O)c(NS(C)(=O)=O)c1` (configuration not stated) [Zinterol hydrochloride], which cell viability is on record?
The cell viability was 97.5%.
